This passage reports T/C results from PubChem BioAssay AID330 (DTP/NCI, 2004).

Values joined by “and” are separate entries in the source; they are usually repeats but may differ in a detail not shown here. Equal values may be shown once. Toxic doses and inconclusive results are not listed.

This experiment deals with P388 leukemia ip, CD2F1 mice, survival T/C. As to the kind of experiment: NCI In Vivo Anticancer Drug Screen. Data for tumor model P388 Leukemia (intraperitoneal) in CD2F1 (CDF1) mice. The conditions noted are these: endpoint: median survival time, higher = longer survival. The method, boiled down:
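Mice carrying the transplanted tumor received test compound or vehicle. Survival was recorded in each group, and the value is the treated-group measurement divided by that of the vehicle-treated control group.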

Where [1] appears, read: dose: 100.0 mg/kg/injection, schedule: Q04DX003 (ip), vehicle: saline.
[2] abbreviates: dose: 200.0 mg/kg/injection, schedule: Q04DX003 (ip), vehicle: saline.
Where [3] appears, read: dose: 400.0 mg/kg/injection, schedule: Q04DX003 (ip), vehicle: saline.
[4] abbreviates: dose: 50.0 mg/kg/injection, schedule: Q01DX005 (ip), vehicle: Klucel (hydroxypropylcellulose) (HPC).
The mark [5] stands for this setting: dose: 100.0 mg/kg/injection, schedule: Q01DX005 (ip), vehicle: Klucel (hydroxypropylcellulose) (HPC).
Where [6] appears, read: dose: 200.0 mg/kg/injection, schedule: Q01DX005 (ip), vehicle: Klucel (hydroxypropylcellulose) (HPC).
The mark [7] stands for this setting: dose: 60.0 mg/kg/injection, schedule: Q01DX005 (ip), vehicle: saline with Tween-80.
Where [8] appears, read: dose: 120.0 mg/kg/injection, schedule: Q01DX005 (ip), vehicle: saline with Tween-80.
Setting [9] is: dose: 240.0 mg/kg/injection, schedule: Q01DX005 (ip), vehicle: saline with Tween-80.
Setting [10] is: dose: 50.0 mg/kg/injection, schedule: Q01DX009 (ip), vehicle: saline with Tween-80.
Setting [11] is: dose: 100.0 mg/kg/injection, schedule: Q01DX009 (ip), vehicle: saline with Tween-80.
Setting [12] is: dose: 200.0 mg/kg/injection, schedule: Q01DX009 (ip), vehicle: saline with Tween-80.
Where [13] appears, read: dose: 50.0 mg/kg/injection, schedule: Q01DX009 (ip), vehicle: saline.
The mark [14] stands for this setting: dose: 100.0 mg/kg/injection, schedule: Q01DX009 (ip), vehicle: saline.
Where [15] appears, read: dose: 200.0 mg/kg/injection, schedule: Q01DX009 (ip), vehicle: saline.

On to `C=C1CCC2C(C)(CCC(O)C2(C)C(=O)O)C1CCc1ccoc1` (centres undefined), for which the T/C runs as follows: (dose: 20.0 mg/kg/injection, schedule: Q01DX005 (ip), vehicle: other) 95 % of control; (dose: 40.0 mg/kg/injection, schedule: Q01DX005 (ip), vehicle: other) 100 % of control; (dose: 80.0 mg/kg/injection, schedule: Q01DX005 (ip), vehicle: other) 103 % of control; (dose: 160.0 mg/kg/injection, schedule: Q01DX005 (ip), vehicle: other) 95 % of control.
For `CCC1(c2ccc(C)cc2)C(=O)NCNC1=O`, the T/C is, setting by setting: (dose: 60.0 mg/kg/injection, schedule: Q01DX005 (ip), vehicle: Klucel (hydroxypropylcellulose) (HPC)) 102 % of control; (dose: 120.0 mg/kg/injection, schedule: Q01DX005 (ip), vehicle: Klucel (hydroxypropylcellulose) (HPC)) 102 % of control; (dose: 240.0 mg/kg/injection, schedule: Q01DX005 (ip), vehicle: Klucel (hydroxypropylcellulose) (HPC)) 100 % of control.
Regarding `Cc1ccccc1C1NC(c2ccccc2C)C2CCCC1C2=O` (centres undefined), the T/C is 89 % of control under setting [1], 96 % of control under setting [2] and 93 % of control under setting [3].
Consider `COc1cc2c(c(OC)c1OC)-c1ccc(SC)c(=O)cc1[C@@H](NC1OCC(O)C(O)C1O)CC2` (some centres undefined), for which the T/C by setting is: (dose: 1.5 mg/kg/injection, schedule: Q01DX009 (ip), vehicle: water) 105 % of control; (dose: 3.0 mg/kg/injection, schedule: Q01DX009 (ip), vehicle: water) 117 % of control; (dose: 6.0 mg/kg/injection, schedule: Q01DX009 (ip), vehicle: water) 113 % of control; (dose: 12.0 mg/kg/injection, schedule: Q01DX009 (ip), vehicle: water) 121 % of control; (dose: 24.0 mg/kg/injection, schedule: Q01DX009 (ip), vehicle: other) 152 % of control; (dose: 24.0 mg/kg/injection, schedule: Q01DX009 (ip), vehicle: water) 123 % of control. The T/C (dose: 48.0 mg/kg/injection, schedule: Q01DX009 (ip), vehicle: other) was 155 % of control.
Turning to `FC(F)(F)c1cccc(-n2nnnc2Oc2ccc(-c3ccccc3)cc2)c1`, the T/C reads like this: (dose: 50.0 mg/kg/injection, schedule: Q01DX005 (ip), vehicle: saline with Tween-80) 97 % of control; (dose: 100.0 mg/kg/injection, schedule: Q01DX005 (ip), vehicle: saline with Tween-80) 101 % of control; (dose: 200.0 mg/kg/injection, schedule: Q01DX005 (ip), vehicle: saline with Tween-80) 90 % of control.
Consider `CC1=CC(=NN=c2cc(C)n([O-])c(C)c2)C=C(C)[N+]1=O`, for which the T/C (dose: 25.0 mg/kg/injection, schedule: Q01DX009 (ip), vehicle: saline) is 118 % of control.
As to `O=[N+]([O-])c1ccc(N2C(c3ccccc3)=N[C@@H](N3CCCCC3)[C@@H]2N2CCCCC2)cc1`, the T/C under setting [4] was 97 % of control, the T/C under setting [5] was 100 % of control and the T/C under setting [6] is 93 % of control.
As to `CNC(=O)Nc1ccc(C2(C)SCCS2)cc1`, the T/C by setting is: under setting [7], 97 % of control; under setting [8], 87 % of control; under setting [9], 90 % of control.
Regarding `COc1ccc2c(c1)CCC1C2CCC2(C)C1CCC2(O)CCN=[N+]=[N-]` (centres undefined), the T/C by setting is: under setting [10], 104 % of control; under setting [11], 101 % of control; under setting [12], 101 % of control.
Turning to `CCCCn1cnc2c(SC)ncnc21`, the T/C was 110 % of control (dose: 22.0 mg/kg/injection, schedule: Q04DX003 (ip), vehicle: saline with Tween-80); 110 % of control (dose: 33.0 mg/kg/injection, schedule: Q04DX003 (ip), vehicle: saline with Tween-80); 115 % of control (dose: 50.0 mg/kg/injection, schedule: Q04DX003 (ip), vehicle: saline with Tween-80); 110 % of control (dose: 75.0 mg/kg/injection, schedule: Q04DX003 (ip), vehicle: saline with Tween-80).
Consider `CCNC(=O)OOC(C)(C)C`, for which the T/C is 102 % of control under setting [13] and 101 % of control under setting [14].
On to `COC(=O)C1([Se]c2ccccc2)CCN2CCC(OCc3ccccc3[N+](=O)[O-])C21` (centres undefined), for which the T/C (dose: 25.0 mg/kg/injection, schedule: Q01DX001 (ip), vehicle: saline with Tween-80) was 90 % of control; the T/C (dose: 50.0 mg/kg/injection, schedule: Q01DX001 (ip), vehicle: saline with Tween-80) is 105 % of control; the T/C (dose: 100.0 mg/kg/injection, schedule: Q01DX001 (ip), vehicle: saline with Tween-80) is 108 % of control and 89 % of control.
As to `COc1cc2c[n+](C)c3c4cc(OC)c(OCc5ccccc5)cc4c(OCc4ccccc4)cc3c2cc1OC`, the T/C was 100 % of control (dose: 3.12 mg/kg/injection, schedule: Q01DX005 (ip), vehicle: Klucel (hydroxypropylcellulose) (HPC)); 100 % of control (dose: 6.25 mg/kg/injection, schedule: Q01DX005 (ip), vehicle: Klucel (hydroxypropylcellulose) (HPC)); 98 % of control (dose: 12.5 mg/kg/injection, schedule: Q01DX005 (ip), vehicle: Klucel (hydroxypropylcellulose) (HPC)).
As for `CCOC(=O)c1[nH]c2ccc(OC)c3c2c1CCC3=O`, the T/C reads like this: under setting [10], 92 % of control; under setting [11], 92 % of control; under setting [12], 92 % of control.
In the case of `O=C1CCCC2CCC(=O)C12` (centres undefined), the T/C reads like this: (dose: 100.0 mg/kg/injection, schedule: Q04DX003 (ip), vehicle: other) 114 % of control; (dose: 200.0 mg/kg/injection, schedule: Q04DX003 (ip), vehicle: other) 97 % of control; (dose: 400.0 mg/kg/injection, schedule: Q04DX003 (ip), vehicle: other) 106 % of control.
`CC(C)OP(=O)(OC(C)C)c1ccncc1`: the T/C was 99 % of control (dose: 100.0 mg/kg/injection, schedule: Q01DX001 (ip), vehicle: saline); 96 % of control (dose: 200.0 mg/kg/injection, schedule: Q01DX001 (ip), vehicle: saline); 101 % of control (dose: 400.0 mg/kg/injection, schedule: Q01DX001 (ip), vehicle: saline).
With `O=C(Nc1cccnc1)c1cccc([N+](=O)[O-])c1`, the T/C by setting is: under setting [7], 100 % of control; under setting [8], 98 % of control; under setting [9], 97 % of control.
On to `Cc1nc2c(ccc3ccccc32)s1`, for which the T/C was 106 % of control under setting [4], 100 % of control under setting [5] and 100 % of control under setting [6].
In the case of `Cn1c2nc(-[n+]3ccc(N4CCOCC4)cc3)nc-2c([O-])n(C)c1=O`, the T/C runs as follows: under setting [1], 100 % of control; under setting [2], 101 % of control; under setting [3], 100 % of control.
As to `Cc1c2ccn(CCCCCCCCn3ccc4c(C)c5nc6ccccc6c5c(C)c4c3)cc2c(C)c2c1nc1ccccc12`, the T/C reads like this: (dose: 3.13 mg/kg/injection, schedule: Q04DX003 (ip), vehicle: distilled water + Tween-80) 118 % of control and 121 % of control; (dose: 25.0 mg/kg/injection, schedule: Q04DX003 (ip), vehicle: distilled water + Tween-80) 123 % of control.
For `CC(=O)NC1C(OC(C)=O)C(OC(C)=O)C(COC(C)=O)OC1[N+](=O)[O-]` (centres undefined), the T/C runs as follows: under setting [7], 101 % of control; under setting [8], 94 % of control; under setting [9], 99 % of control.
For `CCCC(C)Br` (centres undefined), the T/C is, setting by setting: under setting [14], 109 % of control; under setting [15], 114 % of control; (dose: 400.0 mg/kg/injection, schedule: Q01DX009 (ip), vehicle: saline) 115 % of control.
For the molecule `COc1cc(C2C3=C(CC(C)(C)CC3=O)N(CC(=O)O)C3=C2C(=O)CC(C)(C)C3)ccc1O`, the T/C is 95 % of control under setting [13], 102 % of control under setting [14] and 113 % of control under setting [15].
In the case of `COc1ccc(/C(=N\N)C2=NNC3(CCCCC3)NN2)cc1`, the T/C was 94 % of control (dose: 50.0 mg/kg/injection, schedule: Q01DX009 (ip), vehicle: Klucel (hydroxypropylcellulose) (HPC)); 93 % of control (dose: 100.0 mg/kg/injection, schedule: Q01DX009 (ip), vehicle: Klucel (hydroxypropylcellulose) (HPC)); 96 % of control (dose: 200.0 mg/kg/injection, schedule: Q01DX009 (ip), vehicle: Klucel (hydroxypropylcellulose) (HPC)).
